In patent EP0564466B1, “LHRH-ANTAGONISTS” (ASTA Medica Aktiengesellschaft, priority 1990, dated 1992):
Non-standard residues stand in square brackets, D forms with d. Residues, ends and D or L forms follow the SMILES beside them. dPhe(4-Cl) = N[C@H](Cc1ccc(Cl)cc1)C(=O)O; d2Nal = N[C@H](Cc1ccc2ccccc2c1)C(=O)O; d3Pal = N[C@H](Cc1cccnc1)C(=O)O

Legend:
rat ovulation = assay: Corbin's rat antiovulation method (antiovulatory activity, AOA); assay type: in vivo, SD rats; settings: for % AOA/µg 0.5: 0.5 µg; for % AOA/µg 0.5 / % AOA/µg 1.0 / % AOA/µg 0.25: in saline, given at noon of proestrus, female SD rats; for % AOA/µg 1.0: 1.0 µg; for % AOA/µg 0.25: 0.25 µg
Method: Corbin's rat antiovulatlon method is used. The healthy, adult, female SD rats (BW 200-250 g) are used in this experiment. All animals are maintained at 22-24 °C and on 14 h/10 h (light/dark) schedule. They are given standard food, and water ad libitum. The rats showing at least two consecutive 4-day estrous cycles in vaginal smear examination can be used in this experiment. […] The rats are sacrificed next day, their oviduct of two sides are examed under a dissecting microscope to determine the ovum number. The rats were divided into several groups according to the dosing, each group consists of about 10 rats, and the control group in which the rats are given equal amount of saline consists of 9-10 rats. The antiovulatory activity (AOA) is shown in the following equation: AOA=(number of unovulated rats)/(Total number of treated rats)X 100 % [formula]

rat mast cell [1] = assay: Histamine releasing test (HRT) in vitro; assay type: cell-based, SD rats; settings: in vitro histamine release from rat peritoneal mast cells, 15 min at 37 °C
Method: The healthy, adult, male SD rats (BW 200-250 g) housing in the above same conditions are used in this experiment. After anesthetized by CO2 the peritoneal cavity is washed with 50 ml of PIPES AC medium containing 20 units of heparin. Following centrifugation at 200xg for 8 min at 4 °C, cells are washed again and finally resuspended to a concentration of 8 to 24x10^5 total leucocyted/ml in PIPAS AC. This suspension contains approximately 5-10 % mast cells. Washed cells are used immediately after collection and are prewarmed for 5 min at 37 °C prior to pipetting 0,3 ml aliquots into polystyrene tubes containing 0,3 ml of diluted peptide. The mixtures are incubated for 15 min at 37 °C and the reaction stopped by centrifugation at 400 xg for 15 min at 4 °C. The supernatans are assayed for histamine content by manual fluorometric assay method after successively extraction with n-butanol and n-heptane. The histamine content can be obtained from the histamine standard curve (see below). The percentage of histamine release can be calculted from the following equation: Histamine release(%)=(E-B)/(C-B)X 100 % [formula] where E is the fluorometric reading of experimental sample, B is the fluorometric reading of samples with cells and buffer only, and C ist the fluorometric reading of "complete" (cells treated with HCIO4).
The standard curve can be obtained by plotting the OD values on a fluorometer at 350 nm/450 nm (activation/fluorescent) against the concentrations of serially diluted solution of accurately weighted histamine hydrochloride. The relative parameter r of the histamine standard curve can be 0.9998, and the lowest detectable concentration of histamine is 0,5 ng/ml.
The ED50 value of peptide can be gotten from the dose response curves obtained by plotting the histamine release versus the peptide concentration on semilogarithmic paper.
All peptide samples should be tested with mast cells from a minimum of 3 different rats.

rat mast cell [2] = settings: neuropeptide substance P; cited from earlier work

[NAc-D2Nal^1, DpClphe^2, D3Pal^3, Ser^4, Mop^5, D3Pal^6, Leu^7, Arg^8, Pro^9, DAla^10]-NH2 [compound 13]
% AOA/µg 0.5 (rat ovulation): 25% | % AOA/µg 1.0 (rat ovulation): 100% | HRA (µg/ml) ED50 ± SEM (rat mast cell [1]): 14.7 ± 2.70 µg/mL | HRA (µg/ml) ED50 ± SEM (rat mast cell [1]; listed as VII): 14,7 µg/ml

[NAc-D2Nal^1, DpClPhe^2, D3Pal^3, Ser^4, Tyr^5, DArg^6, Leu^7, Arg^8, Pro^9, DAla^10]NH2 [II, reference compound]
AOA (rat ovulation; 0,5 µg, corn oil): 100% | AOA (rat ovulation; 0,25 µg, corn oil): 57%

CC(=O)N[C@H](Cc1ccc2ccccc2c1)C(=O)N[C@H](Cc1ccc(Cl)cc1)C(=O)N[C@H](Cc1cccnc1)C(=O)N[C@@H](CO)C(=O)N[C@@H](CCCNC(=N)N)C(=O)N[C@H](Cc1cccnc1)C(=O)N[C@@H](CC(C)C)C(=O)N[C@@H](CCCNC(=N)N)C(=O)N1CCC[C@H]1C(=O)N[C@H](C)C(N)=O [compound 1, [NAc-D2Nal^1, DpClphe^2, D3Pal^3, Ser^4, Arg^5, D3Pal^6, Leu^7, Arg^8, Pro^9, DAla^10]NH2] (Ac-[d2Nal][dPhe(4-Cl)][d3Pal]SR[d3Pal]LRP[dA]-NH2)
AOA (rat ovulation; 0,5 µg, corn oil): 100% | AOA (rat ovulation; 0,12 µg, corn oil): 60% | AOA (rat ovulation; 0,25 µg, corn oil): 85% | % AOA/µg 0.25 (rat ovulation): 50% | % AOA/µg 0.5 (rat ovulation): 75% | % AOA/µg 1.0 (rat ovulation): 100% | ED50 for AOA (rat ovulation; corn oil): ≤ 0,125 µg | HRA (µg/ml) ED50 ± SEM (rat mast cell [1]): 3.5 ± 0.38 µg/mL | HRA (µg/ml) ED50 ± SEM (rat mast cell [1]; listed as IV): 3,5 µg/ml

[NAc-D2Nal^1, DpClPhe^2, D3Pal^3 Ser4, Tyr5, D3Pal6, Leu7, Arg8, Pro9, DAla10]NH2 [III]
AOA (rat ovulation; 1 µg, corn oil): 83% | AOA (rat ovulation; 3 µg, corn oil): 100% | HRA (µg/ml) ED50 ± SEM (rat mast cell [1]): 9.8 µg/mL

[NAc-D2Nal^1, DpClPhe^2, DPhe^3, Ser^4, Tyr^5, D3Pal^6, Leu^7, Arg^8, Pro^9, DAla^10]NH2 [V']
% AOA/µg 1.0 (rat ovulation): 100% | HRA (µg/ml) ED50 ± SEM (rat mast cell [1]): 7,4 µg/ml

CC(=O)N[C@H](Cc1ccc2ccccc2c1)C(=O)N[C@H](Cc1ccc(Cl)cc1)C(=O)N[C@H](Cc1ccccc1)C(=O)N[C@@H](CO)C(=O)N[C@@H](CCCNC(=N)N)C(=O)N[C@H](Cc1cccnc1)C(=O)N[C@@H](CC(C)C)C(=O)N[C@@H](CCCNC(=N)N)C(=O)N1CCC[C@H]1C(=O)N[C@H](C)C(N)=O [compound 2, [NAc-D2Nal^1, DpClPhe^2, DPhe^3, Ser^4, Arg^5, D3Pal^6, Leu^7, Arg^8, Pro^9, DAla^10]NH2] (Ac-[d2Nal][dPhe(4-Cl)][dF]SR[d3Pal]LRP[dA]-NH2)
% AOA/µg 0.25 (rat ovulation): 29% | % AOA/µg 0.5 (rat ovulation): 60% | % AOA/µg 1.0 (rat ovulation): 100% | HRA (µg/ml) ED50 ± SEM (rat mast cell [1]): 7.4 ± 0.98 µg/mL

[Arg^1, Pro^2, Lys^3, Pro^4, Gln^5, Gln^6 Phe^7, Phe^8, Gly^9, Leu^10, Met^11]NH2 [substance P]
ED50 for HRA (rat mast cell [2]): 5 to 15 µM
